Entries after “also recorded” stand apart in the source; their conditions may differ. Blank lines part the entries; values can stand above or below the compound they belong to.
Columns and labels:
[1] = system: Ge-con and Ge-Hsp70 melanoma cells; assay: Flow cytometry of cell surface MICA/B, NKG2D ligands and HSP70 on Ge melanoma cells after histone deacetylase inhibitor; assay type: cell-based, human; details: FIG. 9A; for HSP70 cell surface expression on Ge cells after histone deacetylase inhibitor treatment: SAHA 10 μM, 20 h, mAb RPN 1197; for MICA/B cell surface expression on Ge-con and Ge-Hsp70 cells: histone deacetylase inhibitor treatment (SAHA 10 μM, 20 h)
Description: (§1) The human melanoma cell line Ge, the Ge-Hsp70 and Ge-con sublines derived therefrom (clones Ge-Hsp70-A, Ge-Hsp70-C, Ge-TCR-C, and Ge-GFP-B) (15), mouse fibroblast L cells, and transfected L cells were maintained in NaHCO3-buffered DMEM supplemented with 10% FCS (Biochrom, Berlin, Germany), 2 mM L-glutamine, 1 mM sodium pyruvate, 50 μM 2-mercaptoethanol and antibiotics (100 U/ml penicillin, 100 μg/ml streptomycin) (Sigma) in Petri dishes for tissue culture (Sarstedt, Nümbrecht, Germany) at 37° C. in a 10% CO2 atmosphere. Human erythroleukemia K562 and mouse lymphoma YAC-1 cells were maintained under the same conditions in Petri dishes for suspension cells (Sarstedt). […] L cells were co-transfected by electroporation with 30 μg of the cosmid A158 (25) containing the MIC3 gene of the rhesus macaque (Macaca mulatta) which is orthologous to human MICA, and with 1 μg of the dsRED vector (Clontech, Mountain View, USA), which confers resistance to geneticin (Invitrogen, Karlsruhe, Germany). After selection with geniticin (1 mg/ml) stable clones were established by limiting dilution, tested for presence of the cosmid by PCR using specific primers (5′-GCT TGC ATT CCC TCC AGG A-3′ (SEQ ID NO: 1) and 5′-TGGACCCTCTGCAGCTGATGT-3′ (SEQ ID NO: 2), length of specific PCR product 1396 bp). MICA mRNA expression was analyzed by Northern blot and cell surface expression by flow cytometry. Four independent clones were tested as target cells for human and rhesus lymphokine-activated killer (LAK) cells with similar results, confirming that MICA expression confers susceptibility to LAK cells. Clone K43 (L-MICA) was selected for the further studies.
Flow cytometry was done on a FACScan flow cytometer (Becton Dickinson, Heidelberg, Germany) using CellQuest software. Expression of intracellular HSP70, T cell receptor (TCR) β, and green fluorescent protein (GFP) in Ge-Hsp70 and Ge-con clones, respectively, was controlled regularly by flow cytometry as described before (15). Cell surface expression of HSP70 was examined on propidium iodide negative cells by a monoclonal antibody (mAb) (RPN 1197, mouse IgG1, multimmune, Regensburg, Germany) that has been reported to detect HSP70 on the plasma membrane (28). MICA/B cell surface expression was determined with the mAb BAMO1 reacting with human MICA and MICB (mouse IgG1, Immatics, Tübingen, Germany). […] Intracellular granzyme B expression was analyzed with the mAb B18.1 (mouse IgG1, Alexis Biochemicals, Grünberg, Germany) after permeabilization of the cells with 0.25% saponin as described before for HSP70 (15). […] The percentage of NK cells in the spleens of SCID mice was determined using the pan-NK cell marker DX5 (rat IgM, PE-conjugated, Caltag Laboratories, Hamburg, Germany). […]

[2] = system: Ge-con and Ge-Hsp70 melanoma cells; assay: 51Chromium release assay: lysis of SAHA-treated Ge-con and Ge-Hsp70 cells by LAK cells; assay type: cell-based, human; details: target cells 10 μM SAHA 20 h; LAK: PBMC 4 days IL-2 100 U/ml; n=4; p=0.0030, three-way ANOVA; FIG. 9B
Description: (§2) The human melanoma cell line Ge, the Ge-Hsp70 and Ge-con sublines derived therefrom (clones Ge-Hsp70-A, Ge-Hsp70-C, Ge-TCR-C, and Ge-GFP-B) (15), mouse fibroblast L cells, and transfected L cells were maintained in NaHCO3-buffered DMEM supplemented with 10% FCS (Biochrom, Berlin, Germany), 2 mM L-glutamine, 1 mM sodium pyruvate, 50 μM 2-mercaptoethanol and antibiotics (100 U/ml penicillin, 100 μg/ml streptomycin) (Sigma) in Petri dishes for tissue culture (Sarstedt, Nümbrecht, Germany) at 37° C. in a 10% CO2 atmosphere. Human erythroleukemia K562 and mouse lymphoma YAC-1 cells were maintained under the same conditions in Petri dishes for suspension cells (Sarstedt). […] MICA mRNA expression was analyzed by Northern blot and cell surface expression by flow cytometry. […]
(§3) Target cells were labeled by incubating 1×10^6 cells in 200 μl HEPES-buffered DMEM containing 100 μl FCS and 50 μCi Na2^51CrO4 (ICN Biomedicals, Eschwege, Germany) for 1 h at 37° C. and washed three times with HEPES-buffered DMEM. […] Spontaneous release was determined by incubation of target cells in the absence of effector cells. […]

[3] = system: NK cells / Ge-con target cells; assay: 51Chromium release assay: lysis of Ge-con melanoma target cells by isolated NK cells; assay type: cell-based, human
[4] = system: PBMC; assay: 51Chromium release assay: lysis of L-MICA / L / K562 target cells by human PBMC or LAK cells stimulated in vitro; assay type: cell-based; details: for lysis of L-MICA cells by IL-2 treated PBMC, additional stimulatory effect of recombinant protein: PBMC cultured 7 days with IL-2 (100 U/ml) plus 2 μg/ml protein, compared with IL-2 only, FIG. 7A
Description: as §1
(§4) Splenocytes from SCID mice were obtained using a Tenbroeck homogeniser and erythrocytes were removed by incubation for 5 min in lysis buffer (155 mM NH4Cl, 10 mM KHCO3, 0.1 mM EDTA, pH 7.4-7.8). Afterwards the cells were used either directly as cytotoxic effector cells or cultured for 24 h in DMEM with 10% FCS and 20% supematant from concanavalin A stimulated lymphocytes before being used in ^51Chromium release assays. Human effector cells were obtained from the peripheral blood of healthy voluntary laboratory co-workers by density gradient centrifugation on Biocoll separating solution (Biochrom). NK cells were isolated from peripheral blood mononuclear cells (PBMC) by magnetic cell sorting (MACS) using a negative selection kit (NK cell isolation Kit II, 130-091-152; Miltenyi Biotec, Bergisch-Gladbach, Germany). […]
as §3

[5] = system: NK cells; assay: 51Chromium release assay: lysis of L-MICA target cells by MACS-isolated NK cells or NK cell depleted PBMC; assay type: cell-based, human
Description: as §2, §3

[6] = system: NK cells; assay: Flow cytometry of NK cell markers and intracellular granzyme B after 5 d culture; assay type: cell-based, human; details: IL-2 100 U/ml, TKD 2 μg/ml
Description: as §4, with “Germany). The kit contains a cocktail of antibodies against CD3, CD4, CD14, CD15, CD19, CD36, CD123, and CD235a. To obtain LAK cells the PBMC were cultured for 4 to 7 days in 5-ml Petri dishes for tissue culture (Sarstedt) at a density of 5 to 10×10^6 cells/ml in DMEM supplemented with 100 U/ml IL-2 (Proleukin, Chiron, Amsterdam, Netherlands). NK cells enriched by MACS were cultured in 24-well plates for tissue culture (Sarstedt) at a density of 2×10^6 cells/ml. To some cultures 2 μg/ml recombinant HSP70, recombinant HSC70, or the HSP70-derived peptide TKD (Bachem, Bubendorf, Switzerland) were added.” for “Germany).”
Flow cytometry was done on a FACScan flow cytometer (Becton Dickinson, Heidelberg, Germany) using CellQuest software. […] MICA/B cell surface expression was determined with the mAb BAMO1 reacting with human MICA and MICB (mouse IgG1, Immatics, Tübingen, Germany). […] Intracellular granzyme B expression was analyzed with the mAb B18.1 (mouse IgG1, Alexis Biochemicals, Grünberg, Germany) after permeabilization of the cells with 0.25% saponin as described before for HSP70 (15). […] The percentage of NK cells in the spleens of SCID mice was determined using the pan-NK cell marker DX5 (rat IgM, PE-conjugated, Caltag Laboratories, Hamburg, Germany). […]

[7] = system: NK cells; details: shown before (27); cited from earlier work

MICA/B cell surface expression on Ge-con and Ge-Hsp70 cells [1]: induced
Compound: O=C(CCCCCCC(=O)Nc1ccccc1)NO [SAHA, suberoylanilide hydroxyamic acid]
HSP70 cell surface expression on Ge cells after histone deacetylase inhibitor treatment [1]: not found
susceptibility of treated Ge-con and Ge-Hsp70 cells to lysis by LAK cells versus untreated cells [2]: significantly more susceptible to lysis by LAK cells than untreated cells; also recorded: lysed signifcantly better than untreated cells
susceptibility of Ge target cells to NK cells after SAHA treatment ([3]; target cells 10 μM SAHA 20 h, p<0.0001, three-way ANOVA, effector:target 2.5:1 and 1.25:1): augmented their susceptibility to NK cells

MICA/B cell surface expression on Ge-con and Ge-Hsp70 cells [1]: induced
Compound: CC(/C=C/C(=O)NO)=C\[C@@H](C)C(=O)c1ccc(N(C)C)cc1 [trichostatin A]
HSP70 cell surface expression on Ge cells after histone deacetylase inhibitor treatment [1]: not found

Compound: HSC70: His-tagged recombinant constitutively expressed HSC70 from the rat Hsc70 gene, produced in E. coli
lysis of L-MICA cells by IL-2 treated PBMC, additional stimulatory effect of recombinant protein [4]: but not HSC70 was able to further activate PBMC to kill MICA expressing target cells

Compound: HSP70: His-tagged recombinant stress-inducible HSP70 protein derived from the rat Hsp70-1 gene, produced in E. coli
capacity of LAK cells to kill L-MICA cells ([4]; 7 days IL-2 (100 U/ml) plus HSP70 (2 μg/ml), tested in parallel with LPS (10 ng/ml), 6 experiments, p=0.0374, FIG. 7B): significantly increased
lysis of L-MICA cells by IL-2 treated PBMC, additional stimulatory effect of recombinant protein [4]: further increased lysis of the L-MICA cells

activity of the NK cells against L-MICA cells ([5]; NK cell enriched fraction, 5 days IL-2 (100 U/ml) plus TKD (2 μg/ml) versus IL-2, 7 experiments, p<0.0001, FIG. 8C): significantly improve
Compound: TKDNNLLGRFELSG
lysis of L-MICA cells by PBMC stimulated with IL-2 and TKD versus IL-2 only ([4]; 7 days, IL-2 100 U/ml, TKD 2 μg/ml, p=0.0012, FIG. 7C): lysed L-MICA cells significantly better
killing of L-MICA cells by stimulated NK cell depleted PBMC ([5]; NK cell depleted PBMC, 5 days IL-2 (100 U/ml) or IL-2 plus TKD (2 μg/ml), effector:target ratios up to 200:1, FIG. 8B): did not result in a cell population that was able to kill L-MICA cells
capability of NK cells to lyse Ge-con target cells after stimulation ([3]; NK cells 5 days IL-2 (100 U/ml) plus TKD (2 μg/ml) versus IL-2, TKD p=0.0055, three-way ANOVA, effector:target 2.5:1 and 1.25:1): increased their capability to lyse target cells
killing of Ge-con target cells: combination of TKD treatment of NK cells and SAHA treatment of target cells ([3]; TKD 2 μg/ml plus IL-2 5 days, SAHA 10 μM 20 h, interaction p=0.0003, especially at lower effector:target ratios, FIG. 10B): acted synergistically
mean fluorescence intensity of NKG2D and CD94, IL-2 and TKD versus IL-2 alone [6]: no significant difference was detectable
intracellular granzyme B expression, IL-2 plus TKD versus IL-2 alone ([6]; 5 experiments, FIG. 10D): tendency towards increased expression
percentage of CD56 positive NK cells, IL-2 plus TKD versus IL-2 ([6]; FIG. 10C): no difference was observed
ability to stimulate NK cells to lyse HSP70 cell surface positive target cells [7]: equivalent to the full length HSP70

Reference: patent publication US20100034772A1, “COMPOSITIONS AND METHODS FOR IMMUNOTHERAPY” (priority 2006, published 2010)
